From patent US10865191B2, “Heterocyclic compounds useful as modulators of TNF alpha” (BRISTOL-MYERS SQUIBB COMPANY, priority 2015, dated 2020)

Biological target: TNFα (Homo sapiens, UniProt P01375)
Assay: TNF induced HEK-Blue assay (NF-kB-driven secreted alkaline phosphatase reporter)
Type: cell-based
Conditions: TNF induced HEK-Blue assay IC50 value, TNFα 0.5 ng/mL, HEK-Blue-CD40L cells, 18 h
Summary of the method: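 HEK-Blue-CD40L cells (NF-kB-driven SEAP reporter), 20,000/well, added after 30 min pre-incubation of compound (0.004–25 μM final) with TNFα 0.5 ng/mL final at 37 °C; 18 h incubation. SEAP read with QUANTI-Blue at 620 nm; IC50 from 4-parameter logistic fit, normalized to unstimulated and stimulated DMSO controls.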

Chain of TNFα (P01375 77-233 limits assumed): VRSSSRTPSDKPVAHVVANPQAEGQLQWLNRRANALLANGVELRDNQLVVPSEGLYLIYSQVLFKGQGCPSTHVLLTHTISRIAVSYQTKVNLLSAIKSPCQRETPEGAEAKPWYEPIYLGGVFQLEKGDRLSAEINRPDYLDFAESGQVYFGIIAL

| SMILES | IC50 [µM] |
| --- | --- |
| C[C@@H](Nc1c(Cl)cnc2ccc(-c3cnc(N4CCN(CC(=O)O)CC4)nc3)cc12)c1ccccc1F [Example 285, (R)-2-(4-(5-(3-chloro-4-((1-(2-fluorophenyl)ethyl)amino)quinolin-6-yl)pyrimidin-2-yl)piperazin-1-yl)acetic acid] | < 1 |

Same assay, conditions: TNFα 0.5 ng/mL, HEK-Blue-CD40L cells, 18 h; read-out: TNF induced HEK-Blue assay IC50 value

| SMILES | IC50 [µM] |
| --- | --- |
| CC(Nc1c(Cl)cnc2cc(F)c(-c3cnc(C(O)CN4CCOCC4)cn3)cc12)c1ccccc1F (centres unmarked) [Example 275, 1-(5-(3-chloro-7-fluoro-4-((1-(2-fluorophenyl)ethyl)amino)quinolin-6-yl)pyrazin-2-yl)-2-morpholinoethan-1-ol] | < 1 |
| CC(Nc1c(Cl)cnc2cc(F)c(-c3cnc(C(O)CN4CCOCC4)cn3)cc12)c1ccccc1F (centres unmarked) [Example 276, 1-(5-(3-chloro-7-fluoro-4-((1-(2-fluorophenyl)ethyl)amino)quinolin-6-yl)pyrazin-2-yl)-2-morpholinoethan-1-ol] | 1 to 10 |
| CC(Nc1c(Cl)cnc2cc(F)c(-c3ccc(C(O)CN4CCOCC4)cc3)cc12)c1ccccc1F (centres unmarked) [Example 277, 1-(4-(3-chloro-7-fluoro-4-((1-(2-fluorophenyl)ethyl)amino)quinolin-6-yl)phenyl)-2-morpholinoethan-1-ol] | < 1 |
| CC(C)(O)c1ncc(-c2cc3c(NC4(c5ccccc5F)CC4)c(Cl)cnc3cc2F)cn1 [Example 278, 2-(5-(3-chloro-7-fluoro-4-((1-(2-fluorophenyl)cyclopropyl)amino)quinolin-6-yl)pyrimidin-2-yl)propan-2-ol] | < 1 |
| CC(C)(O)c1ccc(-c2cc3c(NC4(c5ccccc5F)CC4)c(Cl)cnc3cc2F)cc1 [Example 279, 2-(4-(3-chloro-7-fluoro-4-((1-(2-fluorophenyl)cyclopropyl)amino)quinolin-6-yl)phenyl) propan-2-ol] | 1 to 10 |
| C[C@@H](Nc1c(Cl)cnc2cc(F)c(-c3ccc(N4CCN(CC(=O)O)CC4)cc3)cc12)c1ccccc1F [Example 280, (R)-2-(4-(4-(3-chloro-7-fluoro-4-((1-(2-fluorophenyl)ethyl)amino)quinolin-6-yl)phenyl)piperazin-1-yl)acetic acid] | < 1 |
| CC(Nc1c(Cl)cnc2cc(F)c(-c3cnc(N4CCC(O)C4)cn3)cc12)c1ccccc1F (centres unmarked) [Example 284, 1-(5-(3-chloro-7-fluoro-4-((1-(2-fluorophenyl)ethyl)amino)quinolin-6-yl)pyrazin-2-yl)pyrrolidin-3-ol] | 1 to 10 |
| CC(Nc1c(Cl)cnc2cc(F)c(-c3ccc(C(O)CN4CCOCC4)cc3)cc12)c1ccccc1F (centres unmarked) [Example 286, 1-(4-(3-chloro-7-fluoro-4-((1-(2-fluorophenyl)ethyl)amino)quinolin-6-yl)phenyl)-2-morpholinoethan-1-ol] | < 1 |
| CC(Nc1c(Cl)cnc2cc(F)c(-c3ccc(C(O)CN4CCOCC4)cc3)cc12)c1ccccc1F (centres unmarked) [Example 288, 1-(4-(3-chloro-7-fluoro-4-((1-(2-fluorophenyl)ethyl)amino)quinolin-6-yl)phenyl)-2-morpholinoethan-1-ol] | 1 to 10 |
| CC(Nc1c(Cl)cnc2cc(F)c(-c3cnc(C4(O)CCS(=O)(=O)CC4)nc3)cc12)c1ccccc1F (centres unmarked) [Example 289, 4-(5-(3-chloro-7-fluoro-4-((1-(2-fluorophenyl)ethyl)amino)quinolin-6-yl)pyrimidin-2-yl)-4-hydroxytetrahydro-2H-thiopyran 1,1-dioxide] | < 1 |
| CC(Nc1c(Cl)cnc2cc(F)c(-c3ccc(C(O)CO)cc3)cc12)c1ccccc1F (centres unmarked) [Example 290, 1-(4-(3-chloro-7-fluoro-4-((1-(2-fluorophenyl)ethyl)amino)quinolin-6-yl)phenyl)ethane-1,2-diol] | < 1 |
| CC(Nc1c(Cl)cnc2cc(F)c(-c3ccc(C(O)CO)cc3)cc12)c1ccccc1F (centres unmarked) [Example 291, 1-(4-(3-chloro-7-fluoro-4-((1-(2-fluorophenyl)ethyl)amino)quinolin-6-yl)phenyl)ethane-1,2-diol] | < 1 |
| COCC(C)(O)c1ncc(-c2cc3c(NC(C)c4ccccc4F)c(Cl)cnc3cc2F)cn1 (centres unmarked) [Example 292, 2-(5-(3-chloro-7-fluoro-4-((1-(2-fluorophenyl)ethyl)amino)quinolin-6-yl)pyrimidin-2-yl)-1-methoxypropan-2-ol] | < 1 |
| COCC(C)(O)c1ncc(-c2cc3c(NC(C)c4ccccc4F)c(Cl)cnc3cc2F)cn1 (centres unmarked) [Example 293, 2-(5-(3-chloro-7-fluoro-4-((1-(2-fluorophenyl)ethyl)amino)quinolin-6-yl)pyrimidin-2-yl)-1-methoxypropan-2-ol] | < 1 |
| CC(Nc1c(Cl)cnc2cc(F)c(-c3cnc(C4(O)CCC(C(=O)O)CC4)nc3)cc12)c1ccccc1F (centres unmarked) [Example 295, 4-(5-(3-chloro-7-fluoro-4-((1-(2-fluorophenyl)ethyl)amino)quinolin-6-yl)pyrimidin-2-yl)-4-hydroxycyclohexane-1-carboxylic acid] | < 1 |
| CC(C)(O)c1ncc(-c2cc(F)c3ncc(Cl)c(N[C@@H](c4ccccc4F)C(F)F)c3c2)cn1 [Example 297, (S)-2-(5-(3-chloro-4-((2,2-difluoro-1-(2-fluorophenyl)ethyl)amino)-8-fluoroquinolin-6-yl)pyrimidin-2-yl)propan-2-ol] | < 1 |

| SMILES | IC50 [µM] |
| --- | --- |
| Cc1nc2c(F)cc(-c3cnc(C(C)(C)O)nc3)cc2c(N[C@@H](c2ccccc2F)C(F)F)c1Cl [Example 299, (S)-2-(5-(3-chloro-4-((2,2-difluoro-1-(2-fluorophenyl)ethyl)amino)-8-fluoro-2-methylquinolin-6-yl)pyrimidin-2-yl)propan-2-ol] | < 1 |
| Cc1nc2c(F)cc(-c3cnc(C(C)(C)O)nc3)cc2c(N[C@H](C)c2cc(C#N)ccc2F)c1Cl [Example 302, (R)-3-(1-((3-chloro-8-fluoro-6-(2-(2-hydroxypropan-2-yl)pyrimidin-5-yl)-2-methylquinolin-4-yl)amino)ethyl)-4-fluorobenzonitrile] | < 1 |
| Cc1nc2c(F)cc(-c3cnc(C(C)(C)O)nc3)cc2c(N[C@H](C)c2cc(C(N)=O)ccc2F)c1Cl [Example 303, (R)-3-(1-((3-chloro-8-fluoro-6-(2-(2-hydroxypropan-2-yl)pyrimidin-5-yl)-2-methylquinolin-4-yl)amino)ethyl)-4-fluorobenzamide] | < 1 |
| C[C@@H](Nc1c(Cl)cnc2cc(F)c(-c3cnc(N4CCN(CC(=O)NCC(=O)O)CC4)nc3)cc12)c1ccccc1F [Example 304, (R)-(2-(4-(5-(3-chloro-7-fluoro-4-((1-(2-fluorophenyl)ethyl)amino)quinolin-6-yl)pyrimidin-2-yl)piperazin-1-yl)acetyl)glycine] | < 1 |
| Cc1nc2c(F)cc(-c3ccc(C(C)(C)O)cc3)cc2c(N[C@@H](c2ccccc2F)C(F)F)c1Cl [Example 305, (S)-2-(4-(3-chloro-4-((2,2-difluoro-1-(2-fluorophenyl)ethyl)amino)-8-fluoro-2-methylquinolin-6-yl)phenyl)propan-2-ol] | < 1 |
| Cc1nc2c(F)cc(-c3cnc(C(C)(C)O)nc3)cc2c(NC(C)c2ccccc2)c1Cl (centres unmarked) [Example 306, 2-(5-(3-chloro-8-fluoro-2-methyl-4-((1-phenylethyl)amino)quinolin-6-yl)pyrimidin-2-yl)propan-2-ol] | < 1 |
| Cc1nc2ccc(-c3ccc(C(C)(C)O)cc3)cc2c(N[C@H](C)c2cc(C(N)=O)ccc2F)c1Cl [Example 312, (R)-3-(1-((3-chloro-6-(4-(2-hydroxypropan-2-yl)phenyl)-2-methylquinolin-4-yl)amino)ethyl)-4-fluorobenzamide] | < 1 |
| Cc1nc2ccc(-c3cnc(N4CCOCC4)nc3)cc2c(N[C@H](C)c2cc(C(N)=O)ccc2F)c1Cl [Example 313, (R)-3-(1-((3-chloro-2-methyl-6-(2-morpholinopyrimidin-5-yl)quinolin-4-yl)amino)ethyl)-4-fluorobenzamide] | < 1 |
| Cc1nc2ccc(-c3cnc(C(C)(C)O)nc3)cc2c(N[C@H](C)c2cc(C#N)ccc2F)c1C [Example 314, (R)-4-fluoro-3-(1-((6-(2-(2-hydroxypropan-2-yl)pyrimidin-5-yl)-2,3-dimethylquinolin-4-yl)amino)ethyl)benzonitrile] | < 1 |
| Cc1nc2ccc(-c3cnc(C(C)(C)O)nc3)cc2c(N[C@H](C)c2cc(C(N)=O)ccc2F)c1C [Example 315, (R)-4-fluoro-3-(1-((6-(2-(2-hydroxypropan-2-yl)pyrimidin-5-yl)-2,3-dimethylquinolin-4-yl)amino)ethyl)benzamide] | 10 to 25 |
| Cc1nc2ccc(-c3cnc(C(C)(C)O)nc3)cc2c(N[C@H](C)c2cc(Br)ccc2F)c1Cl [Example 316, (R)-2-(5-(4-((1-(5-bromo-2-fluorophenyl)ethyl)amino)-3-chloro-2-methylquinolin-6-yl)pyrimidin-2-yl)propan-2-ol] | < 1 |
| C[C@@H](Nc1c(Cl)cnc2ccc(-c3cnc(C(C)(C)O)nc3)cc12)c1cc(Br)ccc1F [Example 318, (R)-2-(5-(4-((1-(5-bromo-2-fluorophenyl)ethyl)amino)-3-chloroquinolin-6-yl)pyrimidin-2-yl)propan-2-ol] | < 1 |
| C[C@@H](Nc1c(Cl)cnc2ccc(-c3cnc(C(C)(C)O)nc3)cc12)c1cccc(Br)c1 [Example 319, (R)-2-(5-(4-((1-(3-bromophenyl)ethyl)amino)-3-chloroquinolin-6-yl)pyrimidin-2-yl)propan-2-ol] | < 1 |
| Cc1nc2ccc(-c3cnc(C(C)(C)O)nc3)cc2c(N[C@@H](c2cc(Br)ccc2F)C(F)F)c1Cl [Example 320, (S)-2-(5-(4-((1-(5-bromo-2-fluorophenyl)-2,2-difluoroethyl)amino)-3-chloro-2-methylquinolin-6-yl)pyrimidin-2-yl)propan-2-ol] | < 1 |
| Cc1nc2ccc(-c3cnc(C(C)(C)O)nc3)cc2c(N[C@H](c2cc(Br)ccc2F)C(F)F)c1Cl [Example 321, (R)-2-(5-(4-((1-(5-bromo-2-fluorophenyl)-2,2-difluoroethyl)amino)-3-chloro-2-methylquinolin-6-yl)pyrimidin-2-yl) propan-2-ol] | 10 to 25 |
